Results on five molecules are retold here after paper PMC5071873, “The Effects of Puerarin on Rat Ventricular Myocytes and the Potential Mechanism” (Scientific Reports, 2016).

pEC50: −log10 of the molar value.

Holding throughout (format): cell-based
The target in test [1] is T1, Kv7.1 (Homo sapiens, UniProt P51787).
T1 construct: expressed in transfected cells; host or cells: HEK293
As to the kind of experiment: Whole-cell patch clamp of Kv7.1 currents (voltage steps) in transfected HEK293 cells. Conditions: activator alone, HEK293. The protocol:
(§1) The Tyrode’s solution contained (mM): 126 NaCl, 5.4 KCl, 1.8 CaCl2, 1 MgCl2, 0.33 NaH2PO4, 10 HEPES and 10 glucose, pH 7.4 (adjusted with NaOH). The Ca^2+-free Tyrode’s solution was prepared by removing CaCl2 from the Tyrode’s solution. The Kreb’s solution used for cell storage contained (mM): 70 glutamic acid, 30 KCl, 15 taurine, 0.5 MgCl2, 10 KH2PO4, 0.5 EGTA, 10 HEPES, 10 glucose, and 1% albumin, pH 7.4 (adjusted with KOH). The enzyme solution used for the rat cardiomyocyte isolation contained 0.08 g/L collagenase (type II) and 1.0 g/L BSA in Kreb’s solution. For action potential recording on cardiomyocyte, the pipette solution contained (mM): 100 potassium aspartate, 30 KCl, 1 MgCl2, 5 Mg-ATP, 5 EGTA, 5 HEPES, pH 7.3 (adjusted with KOH); the Tyrode’s solution was used as the standard bath solution. For whole-cell recording of IKs on myocytes, the pipette solution contained (mM): 125 potassium aspartate, 20 KCl, 1 MgCl2, 5 Mg-ATP, 10 EGTA, 5 HEPES, pH 7.3 (adjusted with KOH); the bath solution contained (mM): 132 NaCl, 4 KCl, 1.8 CaCl2, 1.2 MgCl2, 10 HEPES, 5 glucose, pH 7.4 (adjusted with NaOH). 3 μM nifedipine and 5 μM E-4031 were used to block the calcium current and IKr, respectively. For whole-cell recording on HEK-293 cells, the pipette solution contained (mM): 140 KCl, 2 MgCl2, 10 HEPES, 0.1 EGTA, 4 K2-ATP, pH 7.3 (adjusted with KOH); the bath solution contained (mM): 120 NaCl, 5 KCl, 1.5 CaCl2, 1 MgCl2, 10 HEPES, 10 glucose, pH 7.4 (adjusted with NaOH). For single-channel recording, the pipette solution (extracellular) contained (mM): 145 KCl, 10 HEPES, 10 glucose, pH 7.4 (adjusted with KOH); the bath solution (intracellular) contained (mM): 145 KCl, 1.2 MgCl2, 10 HEPES, 0.1 EGTA, pH 7.38 (adjusted with KOH).
(§2) Cell suspensions were transferred into a chamber on the stage of a Nikon Eclipse Ti inverted microscope (Tokyo, Japan). The whole-cell recordings were performed using isolated single ventricular myocytes. Patch electrodes were pulled from a horizontal microelectrode puller (P-1000, Sutter Instrument Co, USA) and fire polished to final tip resistance of 4.0–8.0 MΩ when filled with internal solutions. Signals were amplified with an Axopatch 200B amplifier (Axon Instruments, USA) and filtered at 1 kHz. The pCLAMP 9.0 software was used to generate current and voltage clamp protocols, acquire data, and analyse the current traces. The whole-cell series resistance was compensated to more than 80%. All of the experiments were performed at room temperature (22 ± 1 °C). The whole-cell IK1 was elicited by a ramp voltage protocol from −140 to + 40 mV in 1 s, or at a 0 mV holding potential to test potentials from −140 to + 40 mV in 10 mV increments. The IK1 was calculated as the difference between the peak inward current and the holding current level. The whole-cell Kv7.1/IKs were elicited from a −30 mV holding potential to test potentials from −80 to + 40 mV in 10 mV increments.
(§3) Human Kir2.1 cDNA, Kir2.3 cDNA, Kv7.1 cDNA and KCNE1 cDNA, was cloned in Human Embryonic Kidney 293 cells, respectively. In some cases, Kv7.1 cDNA and KCNE1 cDNA were simultaneously cloned in Human Embryonic Kidney 293 cells.

Test [2] addresses T1, Kv7.1. As to the kind of experiment: Single-channel inside-out patch clamp recording of Kv7.1. Conditions: 293B applied after puerarin 100 μM. The protocol:
as §1, with “3 μM nifedipine and 5 μM E-4031 were used to block the calcium current and IKr, respectively. For whole-cell recording on HEK-293 cells, the pipette solution contained (mM): 140 KCl, 2 MgCl2, 10 HEPES, 0.1 EGTA, 4 K2-ATP, pH 7.3 (adjusted with KOH); the bath solution contained (mM): 120 NaCl, 5 KCl, 1.5 CaCl2, 1 MgCl2, 10 HEPES, 10 glucose, pH 7.4 (adjusted with NaOH). For single-channel recording, the pipette solution (extracellular) contained (mM): 145 KCl, 10 HEPES, 10 glucose, pH 7.4 (adjusted with KOH); the bath solution (intracellular) contained (mM): 145 KCl, 1.2 MgCl2, 10 HEPES, 0.1 EGTA, pH 7.38 (adjusted with KOH).” left out
(§4) Single-channel activity was recorded at a series of holding levels ranging from 10 mV of 50 mV. […] Single-channel events were listed and analysed by pclampfit 9.0 (single-channel search-in-analyse function). […]
For orientation: The patch-clamp technique gives a direct electrical read-out from membranes.

The target of test [3] is T2, IKs channel (Homo sapiens, UniProt P51787).
T2 construct: expressed in transfected cells; host or cells: HEK293
In words: Single-channel inside-out patch clamp recording of IKs. The settings on record: 293B applied after puerarin 100 μM. On the procedure: as §1, with “3 μM nifedipine and 5 μM E-4031 were used to block the calcium current and IKr, respectively. For whole-cell recording on HEK-293 cells, the pipette solution contained (mM): 140 KCl, 2 MgCl2, 10 HEPES, 0.1 EGTA, 4 K2-ATP, pH 7.3 (adjusted with KOH); the bath solution contained (mM): 120 NaCl, 5 KCl, 1.5 CaCl2, 1 MgCl2, 10 HEPES, 10 glucose, pH 7.4 (adjusted with NaOH). For single-channel recording, the pipette solution (extracellular) contained (mM): 145 KCl, 10 HEPES, 10 glucose, pH 7.4 (adjusted with KOH); the bath solution (intracellular) contained (mM): 145 KCl, 1.2 MgCl2, 10 HEPES, 0.1 EGTA, pH 7.38 (adjusted with KOH).” left out
as §4

Test [4] has as its target T3, IKs channels (KCNQ and KCNE) (Homo sapiens, UniProt P51787).
T3 construct: expressed in transfected cells; host or cells: HEK293
As to the kind of experiment: Whole-cell patch clamp of IKs currents (Kv7.1 + KCNE1, voltage steps) in transfected HEK293 cells. On the procedure: as §1, §2, §3

Test [5] addresses T4, IKs (Rattus norvegicus, UniProt Q9Z0N7).
T4 construct: endogenous in cells; host or cells: isolated adult rat ventricular myocytes
In words: Whole-cell recording of IKs on rat ventricular myocytes. The settings on record: forskolin alone. On the procedure:
as §1, with “3 μM nifedipine and 5 μM E-4031 were used to block the calcium current and IKr, respectively. For whole-cell recording on HEK-293 cells, the pipette solution contained (mM): 140 KCl, 2 MgCl2, 10 HEPES, 0.1 EGTA, 4 K2-ATP, pH 7.3 (adjusted with KOH); the bath solution contained (mM): 120 NaCl, 5 KCl, 1.5 CaCl2, 1 MgCl2, 10 HEPES, 10 glucose, pH 7.4 (adjusted with NaOH). For single-channel recording, the pipette solution (extracellular) contained (mM): 145 KCl, 10 HEPES, 10 glucose, pH 7.4 (adjusted with KOH); the bath solution (intracellular) contained (mM): 145 KCl, 1.2 MgCl2, 10 HEPES, 0.1 EGTA, pH 7.38 (adjusted with KOH).” left out
Cell suspensions were transferred into a chamber on the stage of a Nikon Eclipse Ti inverted microscope (Tokyo, Japan). […] The IK1 was calculated as the difference between the peak inward current and the holding current level. […]

Test [6] has as its system rat ventricular myocytes. As to the kind of experiment: Action potential recording on isolated rat ventricular myocytes. Conditions: isoproterenol 10 nM, comparing with control. On the procedure:
as §1
Single ventricular myocytes were isolated from adult rat hearts via enzymatic dissociation as previously described. Briefly, the rats were anesthetised with 25% chloral hydrate (0.1 g/100 g). Their hearts were excised rapidly and retrogradely perfused on a Langendorff apparatus with a Ca^2+-free Tyrode’s solution for 5 min before the perfusate was switched to an enzymatic solution for 10–20 min. The perfusate was finally changed to Kreb’s solution for 5 min. The perfusates were bubbled with 95% O2 + 5% CO2 and maintained at 37 °C. The ventricles w ere cut into small chunks and gently agitated in Kreb’s solution. The cells were filtered through nylon mesh (pore size 200 μm) and stored in Kreb’s solution at 4 °C.
Action potentials were elicited at 1 Hz by 2 ms current pulses applied using the patch pipette.
as §2

Take “8-Bromoadenosine-3′, 5′-cyclic monophosphorothioate [8-Br-cAMP]”: the “effect on Kv7.1 current” value in test [1] was “significantly enhanced”.
As for `CCS(=O)(=O)N(C)[C@H]1c2cc(C#N)ccc2OC(C)(C)[C@@H]1O` [293B], the “open probability of Kv7.1 channel” value in test [2] was “further abolished”. The “open probability of IKs channel” value in test [3] is reported as “further abolished”.
As to `O=C(O)[C@H]1O[C@@H](Oc2cc3oc(-c4ccccc4)cc(=O)c3c(O)c2O)[C@H](O)[C@@H](O)[C@@H]1O` [Baicalin], in test [4] (HEK293), the “maximal increased effect upon IKs currents” value came out at 57.32 ± 3.07% and the “saturation dosage, enhancement of IKs” value came to 1 mM. In test [4] (at the peak currents, non-linear Hill fit, read-out: EC50, enhancement of IKs currents), the pEC50 was 3.86. In addition, the “Hill coefficient, enhancement of IKs” value in test [4] (non-linear Hill fit) is 0.993.
For the molecule `C=C[C@@]1(C)CC(=O)[C@]2(O)[C@@]3(C)[C@@H](O)CCC(C)(C)[C@@H]3[C@H](O)[C@H](OC(C)=O)[C@@]2(C)O1` [Forskolin], in test [5], the “effect on IKs current in rat cardiac myocytes” value is “significantly enhanced”. Moreover, the “effect on Kv7.1 current” value in test [1] is reported as “significantly enhanced”.
For the molecule `CC(C)NCC(O)c1ccc(O)c(O)c1` (centres unmarked) [Isoproterenol], the “effect on APD of rat ventricles” value in test [6] was “significantly shortened”. Besides, the “effect on Kv7.1 current” value in test [1] is listed as “significantly enhanced”.

As a reminder, the pEC50 is −log10 of the EC50, conventionally taken in molar units.
